Assay [1] deals with L-1210 mouse lymphocytic leukemia cells. In words: Toxicity to cultured L-1210 cells, number of viable cells. Format: cell-based. From the text:
2. Effects of orotate analogues on cell viability and the ability to synthesize nucleic acids from radioactive precursors, and the rescuing effects of normal pyrimidine bases or nucleosides or amino acid derivatives such as histidinol, can be tested in human-derived tissue culture cell lines. Human HT-1080 human sarcoma cells [Rusheed, S., et al., Cancer, 33:1027-30 (1974)], human diploid IMR-90 cells [Nichols, W. W., et al., Science, 196:60-3 (1977)], human cervical […] HeLa S3 cells [Puck, T. T., et al., J. Exp. Med., 103:273-84 (1956)], HL-60 human myeloid leukemia cells [Collins, S. J., et al., Nature, 270:347-9 (1977)], and mouse leukemia L-1210 cells [Moore, G. E., J. Nat. […] The growth medium most suitable for each cell line can be determined by reference to the publications cited above: briefly, HT-1080 cells are maintained in Eagle's Minimal Essential Medium (EMEM) supplemented with 5% fetal bovine serum (FBS) and 2 mM L-glutamine; IMR-90 cells are grown in EMEM supplemented with 10% FBS, 10 mM Hepes buffer, 0.21% NaHCO3, and 2 mM L-glutamine. […]
Toxicity of pyrimidine analogues to cultured human cells is determined as follows. […] Thereafter, the number of cells in each well is determined. […] Cells that grow in suspension (e.g., HL-60 and L-1210 cells) are transferred to centrifuge tubes, pelleted at low speed, washed, and the viability determined as above. […]

Assay [2] has as its system Plasmodium falciparum, Sierra Leone clone. The assay can be described thus: [U-14C]-isoleucine incorporation into parasite protein, Sierra Leone clone. The format is cell-based, P. falciparum. As to conditions: Table 2, isoleucine uptake. The protocol: 3. […] Agents Chemotherap., 16:710-18 (1979)].
The chloroquine-sensitive Sierra Leone clone of P. falciparum was cultured in erythrocytes as in Example 1 above. In one method of determining the toxicity of 5-fluoro-orotate, [G-^3 H]-hypoxanthine uptake was used as an indicator of parasite proliferation, according to the procedure of Example 1 above. In a second method, the increase in parasitemia was determined directly by smearing infected erythrocytes on microscope slides, staining with Giemsa stain, and determining the ratio of infected to non-infected erythrocytes. In a third method, parasite-infected erythrocytes were incubated with [U-^14 C]-isoleucine (0.5 μCi; 0.33 Ci/mmol), and the amount of radioactivity incorporated into precipitable proteins determined.

Where two headings read alike, the source gives them in different places.

For `O=C(O)c1[nH]c(=O)[nH]c(=O)c1F` [5-fluoro-orotate], the IC50 was 5 µM in assay [1] (L1210, L-1210, with 1 mM uridine, read-out: IC50 With 1 mM Uridine); 2.8 µM in assay [1] (L1210, L-1210, without uridine, read-out: IC50 Without Uridine); 0.0047 µM in assay [2].

For the origin of these results see patent US6159953A, “Anti-malarial composition and method of use” (Catholic University of America, priority 1992, dated 2000).
